Results reported in PubChem BioAssay AID1963432 (Molecular Pharmacology Branch, DTP, NCI, 2024).
pIC50: −log10 of the molar value.

System: SYO-1 complex spheroid growth, percent test/control
Assay: Anticancer human tumor SYO-1 cell line growth inhibition [Asc];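 note: compound exposure lasted 7 days after spheroids grew 3 days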;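 for viability, T/C: 100% = DMSO vehicle control viability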
Settings: for pIC50: curve of first compound; for viability, T/C: stronger effect = lower value
Procedure, shortened: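 Concentration series start at each agent's clinical Cmax, or at 10 microM when none is established, and drop in half-log steps; agents are applied alone or together to complex spheroids built with HUVEC and hMSC.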

SMILES: Cc1nc(N2CCC3(CC2)COC(C)C3N)c(CO)nc1Sc1ccnc(N)c1Cl (stereo unspecified) + CCN1C(C(=O)NC23CCC(C(=O)O)(CC2)CC3)C(c2cccc(Cl)c2F)C2(C(=O)Nc3cc(Cl)ccc32)C12CCCCC2
- pIC50 (second compound 0.00949 µM): < 5.52
- pIC50 (second compound 0.03 µM): < 5.52
- pIC50 (second compound 0.0949 µM): < 5.52
- pIC50 (second compound 0.3 µM): > 8.02
- pIC50 (second compound 0.949 µM): > 8.02
- pIC50 (second compound 3 µM): > 8.02
- viability, T/C (second compound 0.00949 µM, first compound 0.00949 µM): 111%
- viability, T/C (second compound 0.00949 µM, first compound 0.03 µM): 103%
- viability, T/C (second compound 0.00949 µM, first compound 0.0949 µM): 112%
- viability, T/C (second compound 0.00949 µM, first compound 0.3 µM): 109%
- viability, T/C (second compound 0.00949 µM, first compound 0.949 µM): 116%
- viability, T/C (second compound 0.00949 µM, first compound 3 µM): 114%
- viability, T/C (second compound 0.03 µM, first compound 0.00949 µM): 111%
- viability, T/C (second compound 0.03 µM, first compound 0.03 µM): 103%
- viability, T/C (second compound 0.03 µM, first compound 0.0949 µM): 108%
- viability, T/C (second compound 0.03 µM, first compound 0.3 µM): 99.7%
- viability, T/C (second compound 0.03 µM, first compound 0.949 µM): 117%
- viability, T/C (second compound 0.03 µM, first compound 3 µM): 117%
- viability, T/C (second compound 0.0949 µM, first compound 0.00949 µM): 82.8%
- viability, T/C (second compound 0.0949 µM, first compound 0.03 µM): 81.1%
- viability, T/C (second compound 0.0949 µM, first compound 0.0949 µM): 86.8%
- viability, T/C (second compound 0.0949 µM, first compound 0.3 µM): 91.2%
- viability, T/C (second compound 0.0949 µM, first compound 0.949 µM): 96.9%
- viability, T/C (second compound 0.0949 µM, first compound 3 µM): 83.3%
- viability, T/C (second compound 0.3 µM, first compound 0.00949 µM): 24.3%
- viability, T/C (second compound 0.3 µM, first compound 0.03 µM): 19.9%
- viability, T/C (second compound 0.3 µM, first compound 0.0949 µM): 23.2%
- viability, T/C (second compound 0.3 µM, first compound 0.3 µM): 17.4%
- viability, T/C (second compound 0.3 µM, first compound 0.949 µM): 17.4%
- viability, T/C (second compound 0.3 µM, first compound 3 µM): 10.9%
- viability, T/C (second compound 0.949 µM, first compound 0.00949 µM): 3.59%
- viability, T/C (second compound 0.949 µM, first compound 0.03 µM): 2.68%
- viability, T/C (second compound 0.949 µM, first compound 0.0949 µM): 3.26%
- viability, T/C (second compound 0.949 µM, first compound 0.3 µM): 1.67%
- viability, T/C (second compound 0.949 µM, first compound 0.949 µM): 1.74%
- viability, T/C (second compound 0.949 µM, first compound 3 µM): 0.54%
- viability, T/C (second compound 3 µM, first compound 0.00949 µM): 0.99%
- viability, T/C (second compound 3 µM, first compound 0.03 µM): 1.08%
- viability, T/C (second compound 3 µM, first compound 0.0949 µM): 0.94%
- viability, T/C (second compound 3 µM, first compound 0.3 µM): 2.3%
- viability, T/C (second compound 3 µM, first compound 0.949 µM): 0.69%
- viability, T/C (second compound 3 µM, first compound 3 µM): 0.39%

SMILES: C#Cc1c(F)ccc2cc(O)cc(-c3ncc4c(N5CC6CCC(C5)N6)nc(OCC56CCCN5CC(F)C6)nc4c3F)c12 (stereo unspecified) + CNC(C)C(=O)NC1CN(S(=O)(=O)c2cccc(S(=O)(=O)N3CCC4CCC(C(=O)NC(c5ccccc5)c5ccccc5)N4C(=O)C(NC(=O)C(C)NC)C3)c2)CCC2CCC(C(=O)NC(c3ccccc3)c3ccccc3)N2C1=O
- pIC50 (second compound 0.00316 µM): < 5.00
- pIC50 (second compound 0.01 µM): < 5.00
- pIC50 (second compound 0.0316 µM): < 5.00
- pIC50 (second compound 0.1 µM): < 5.00
- pIC50 (second compound 0.316 µM): < 5.00
- pIC50 (second compound 1 µM): < 5.00
- viability, T/C (second compound 0.00316 µM, first compound 0.0316 µM): 106%
- viability, T/C (second compound 0.00316 µM, first compound 0.1 µM): 102%
- viability, T/C (second compound 0.00316 µM, first compound 0.316 µM): 101%
- viability, T/C (second compound 0.00316 µM, first compound 1 µM): 103%
- viability, T/C (second compound 0.00316 µM, first compound 3.16 µM): 110%
- viability, T/C (second compound 0.00316 µM, first compound 10 µM): 106%
- viability, T/C (second compound 0.01 µM, first compound 0.0316 µM): 104%
- viability, T/C (second compound 0.01 µM, first compound 0.1 µM): 93.3%
- viability, T/C (second compound 0.01 µM, first compound 0.316 µM): 102%
- viability, T/C (second compound 0.01 µM, first compound 1 µM): 108%
- viability, T/C (second compound 0.01 µM, first compound 3.16 µM): 112%
- viability, T/C (second compound 0.01 µM, first compound 10 µM): 105%
- viability, T/C (second compound 0.0316 µM, first compound 0.0316 µM): 96.8%
- viability, T/C (second compound 0.0316 µM, first compound 0.1 µM): 106%
- viability, T/C (second compound 0.0316 µM, first compound 0.316 µM): 101%
- viability, T/C (second compound 0.0316 µM, first compound 1 µM): 106%
- viability, T/C (second compound 0.0316 µM, first compound 3.16 µM): 106%
- viability, T/C (second compound 0.0316 µM, first compound 10 µM): 106%
- viability, T/C (second compound 0.1 µM, first compound 0.0316 µM): 111%
- viability, T/C (second compound 0.1 µM, first compound 0.1 µM): 97.5%
- viability, T/C (second compound 0.1 µM, first compound 0.316 µM): 105%
- viability, T/C (second compound 0.1 µM, first compound 1 µM): 111%
- viability, T/C (second compound 0.1 µM, first compound 3.16 µM): 120%
- viability, T/C (second compound 0.1 µM, first compound 10 µM): 99.6%
- viability, T/C (second compound 0.316 µM, first compound 0.0316 µM): 98.7%
- viability, T/C (second compound 0.316 µM, first compound 0.1 µM): 99.1%
- viability, T/C (second compound 0.316 µM, first compound 0.316 µM): 108%
- viability, T/C (second compound 0.316 µM, first compound 1 µM): 108%
- viability, T/C (second compound 0.316 µM, first compound 3.16 µM): 116%
- viability, T/C (second compound 0.316 µM, first compound 10 µM): 102%
- viability, T/C (second compound 1 µM, first compound 0.0316 µM): 99.7%
- viability, T/C (second compound 1 µM, first compound 0.1 µM): 106%
- viability, T/C (second compound 1 µM, first compound 0.316 µM): 106%
- viability, T/C (second compound 1 µM, first compound 1 µM): 103%
- viability, T/C (second compound 1 µM, first compound 3.16 µM): 106%
- viability, T/C (second compound 1 µM, first compound 10 µM): 105%

SMILES: Cc1nc(N2CCC3(CC2)COC(C)C3N)c(CO)nc1Sc1ccnc(N)c1Cl (stereo unspecified) + CNC(C)C(=O)NC1CN(S(=O)(=O)c2cccc(S(=O)(=O)N3CCC4CCC(C(=O)NC(c5ccccc5)c5ccccc5)N4C(=O)C(NC(=O)C(C)NC)C3)c2)CCC2CCC(C(=O)NC(c3ccccc3)c3ccccc3)N2C1=O
- pIC50 (second compound 0.00316 µM): < 5.52
- pIC50 (second compound 0.01 µM): < 5.52
- pIC50 (second compound 0.0316 µM): < 5.52
- pIC50 (second compound 0.1 µM): < 5.52
- pIC50 (second compound 0.316 µM): < 5.52
- pIC50 (second compound 1 µM): < 5.52
- viability, T/C (second compound 0.00316 µM, first compound 0.00949 µM): 107%
- viability, T/C (second compound 0.00316 µM, first compound 0.03 µM): 105%
- viability, T/C (second compound 0.00316 µM, first compound 0.0949 µM): 109%
- viability, T/C (second compound 0.00316 µM, first compound 0.3 µM): 96.5%
- viability, T/C (second compound 0.00316 µM, first compound 0.949 µM): 106%
- viability, T/C (second compound 0.00316 µM, first compound 3 µM): 102%
- viability, T/C (second compound 0.01 µM, first compound 0.00949 µM): 105%
- viability, T/C (second compound 0.01 µM, first compound 0.03 µM): 95.8%
- viability, T/C (second compound 0.01 µM, first compound 0.0949 µM): 101%
- viability, T/C (second compound 0.01 µM, first compound 0.3 µM): 105%
- viability, T/C (second compound 0.01 µM, first compound 0.949 µM): 110%
- viability, T/C (second compound 0.01 µM, first compound 3 µM): 105%
- viability, T/C (second compound 0.0316 µM, first compound 0.00949 µM): 111%
- viability, T/C (second compound 0.0316 µM, first compound 0.03 µM): 104%
- viability, T/C (second compound 0.0316 µM, first compound 0.0949 µM): 102%
- viability, T/C (second compound 0.0316 µM, first compound 0.3 µM): 106%
- viability, T/C (second compound 0.0316 µM, first compound 0.949 µM): 115%
- viability, T/C (second compound 0.0316 µM, first compound 3 µM): 108%
- viability, T/C (second compound 0.1 µM, first compound 0.00949 µM): 109%
- viability, T/C (second compound 0.1 µM, first compound 0.03 µM): 103%
- viability, T/C (second compound 0.1 µM, first compound 0.0949 µM): 104%
- viability, T/C (second compound 0.1 µM, first compound 0.3 µM): 116%
- viability, T/C (second compound 0.1 µM, first compound 0.949 µM): 110%
- viability, T/C (second compound 0.1 µM, first compound 3 µM): 110%
- viability, T/C (second compound 0.316 µM, first compound 0.00949 µM): 105%
- viability, T/C (second compound 0.316 µM, first compound 0.03 µM): 107%
- viability, T/C (second compound 0.316 µM, first compound 0.0949 µM): 108%
- viability, T/C (second compound 0.316 µM, first compound 0.3 µM): 107%
- viability, T/C (second compound 0.316 µM, first compound 0.949 µM): 119%
- viability, T/C (second compound 0.316 µM, first compound 3 µM): 102%
- viability, T/C (second compound 1 µM, first compound 0.00949 µM): 103%
- viability, T/C (second compound 1 µM, first compound 0.03 µM): 109%
- viability, T/C (second compound 1 µM, first compound 0.0949 µM): 104%
- viability, T/C (second compound 1 µM, first compound 0.3 µM): 103%
- viability, T/C (second compound 1 µM, first compound 0.949 µM): 115%
- viability, T/C (second compound 1 µM, first compound 3 µM): 107%
